The text below walks through data of patent US20260364184A1, “COMPOUND BASED ON OXOISOINDOLINYL-SUBSTITUTED TETRAHYDROPYRIMIDINE-DIONE AND USE THEREOF” (GLUETACS THERAPEUTICS (SHANGHAI) CO., LTD., priority 2023, published 2026).

Like-named read-outs stand apart in the source and are kept apart here.

For experiment [1], the system named is Human diffuse large B-cell lymphoma cell line (TMD8). The experiment can be described thus: Inhibition of TMD8 cell proliferation (CellTiter luminescent viability). It counts as cell-based. The settings on record: Homo sapiens, TMD8, 96 h; for inhibition at 0.01 µM: TMD8, 10 nM, read-out: Inhibition Rate at 10 nM (%); for inhibition at 0.5 µM: TMD8, 500 nM, read-out: Inhibition Rate at 500 nM (%). How it is done: The tumor cells used herein were cultured in a cell culture medium listed in table 3 at 37 °C in an incubator with 5% CO2. Prior to experimentation, all cell lines used were correctly identified by STR profiling, and tested negative for mycoplasma contamination using a mycoplasma detection kit through routine screenings.
The IC50 values of the compounds of the present disclosure (including the compounds in Table 1, Table 2, and Examples 1-468) were determined using the CellTiter-Meiluncell Luminescent Cell Viability Assay Kit from Dalian Meilun Biotech Co., Ltd. The detailed procedure is as follows: Tumor cells were seeded in 96-well cell culture plates at the densities specified in Table 4. On the following day, the test compounds of the present disclosure were subjected to serial dilution. The dilution can be performed according to one of the following two methods: • (1) The first dilution method: The test compounds of the present disclosure (including the compounds in Table 1, Table 2, and Examples 1-468) were subjected to 5-fold serial dilutions starting from a highest concentration of 2000 μM, resulting in a total of 9 concentrations from high to low (2000, 400, 80, 16, 3.2, 0.64, 0.128, 0.0256, 0.00512 μM). Subsequently, 0.5 μL of the test compound dilution was transferred into the 96-well plate containing the cells, with each well containing 100 μL of cell culture medium. […] Into the 96-well plate, the diluted test compounds and corresponding detection reagents were added, resulting in final test compound concentrations of 500 nM and 10 nM, respectively. The experimental procedure is described below using the diluted 2 μM test compound as an example.
0.5 μL of the aforementioned diluted compound of the present disclosure (including the compounds in Table 1, Table 2, and Examples 1-468) was added to the seeded cells in 100 μL of medium, yielding a final test compound concentration of 10 nM. After the cells were treated with the compounds of the present disclosure for a specified period, the cell viability assay reagent was added to the culture medium according to the kit's instructions to determine cell viability. […] All controls were treated using the same procedure as the compounds of the present disclosure. The growth inhibition curves for the compounds of the present disclosure were plotted using Prism GraphPad software, and the IC50 values were calculated therefrom.

Experiment [2] addresses T1, human Cereblon WT GST-tagged protein (CRBN) (Homo sapiens, UniProt Q96SW2).
T1 construct: purchased CISBIO 64BDCRBNPEH
The experiment can be described thus: CRBN binding by HTRF (Cereblon binding kit). How it is done: The CEREBLON BINDING kits (specification: 10,000 tests; product number: Catalog #64BDCRBNPEH; CISBIO company) was used to determine the CRBN binding ability of the compounds to be tested through a HTRF method (homogeneous time-resolved fluorescence). The specific methods are as follows: • 1. According to the instructions of the CEREBLON BINDING KITS, serial dilutions were performed for the test compounds of the present disclosure (including the compounds in Table 1, Table 2, and Examples 1-468) and for lenalidomide. Specifically, diluent #9 (1×) solution was used as the diluent, and multiple concentration gradients were set. The dilution operation can be performed according to one of the following two methods: • (1) The first dilution method: The test compounds of the present disclosure (including the compounds in Table 1, Table 2, and Examples 1-468) were subjected to 5-fold serial dilutions starting from a highest concentration of 40 μM, resulting in a total of 7 concentrations from high to low (40, 8, 1.6, 0.32, 0.064, 0.0128, 0.00256 μM). Subsequently, the diluted test compounds and corresponding detection reagents were added to each well of a 96-well plate, resulting in final test compound concentrations of 10, 2, 0.4, 0.08, 0.016, 0.0032, and 0.00064 μM, respectively. • (2) As an alternative, a second dilution method can be used: The test compounds of the present disclosure (including the compounds in Table 1, Table 2, and Examples 1-468) were subjected to 4-fold gradient dilutions starting from a highest concentration of 8 μM, resulting in 2 concentrations (8 μM, 2 μM). Into the 96-well plate, the diluted test compounds and corresponding detection reagents were added, resulting in final test compound concentrations of 2 μM and 0.5 μM, respectively. The experimental procedure is described below using the diluted 8 μM test compound and lenalidomide solutions as examples. • 2. 2.5 μL of the above 8 μM of the tested compounds and lenalidomide solution, as well as the same volume of diluent #9 (1×) solution (solvent control group, Std0) were added to each well of a 96-well plate, respectively. Then, 2.5 μL of human Cereblon WT GST-tagged protein solution was added to each well. Finally, 5 μL of the thoroughly mixed Thalidomide-Re reagent and GST Eu antibody working solution were added to each of the aforementioned wells. The final concentration of the tested compounds and lenalidomide in each well was 2 μM. • 3. The blank control wells were sequentially added with 2.5 μL of diluent #9 (1×) solution, 2.5 μL of PROTAC binding buffer, and 5 μL of thoroughly mixed Thalidomide-Re reagent and GST Eu antibody working solution. • 4. After sealing and incubating the solutions in the aforementioned wells at room temperature for 3 hours, the absorbance values at emission wavelengths of 620 nm and 665 nm were detected by the HTRF method using a Spark microplate reader (V3.1 SP1).
The corresponding CRBN binding inhibition rate was calculated using the following method:
Rcompound=OD 665 nmcompound/OD 620 nmcompound−OD 665 nmcontrol/OD 620 nmcontrol
RStd0=OD 665 nmStd0/OD 620 nmStd0−OD 665 nmcontrol/OD 620 nmcontrol inhibition rate (%)=(1−Rcompound/RStd0)*100
Note: OD 665 nmcompound is the absorbance value of each well of the compounds to be tested of the present disclosure at an emission wavelength of 665 nm. OD 620 nmcompound is the absorbance value of each well of the compounds to be tested of the present disclosure at an emission wavelength of 620 nm. OD 665 nmcontrol is the absorbance value of the blank control well at an emission wavelength of 665 nm. OD 620 nmcontrol is the absorbance value of the blank control well at an emission wavelength of 620 nm. OD 665 nmStd0 is the absorbance value of the solvent control well at an emission wavelength of 665 nm. OD 620 nmStd0 is the absorbance value of the solvent control well at an emission wavelength of 620 nm.
A general note: In TR-FRET formats the signal depends on donor and acceptor labels being close together.

For another experiment, the target named is T2, IRAK4 (Homo sapiens, UniProt Q9NWZ3).
T2 construct: expression of target proteins in cells; endogenous in cells
T2 sequence (Q9NWZ3 1-460): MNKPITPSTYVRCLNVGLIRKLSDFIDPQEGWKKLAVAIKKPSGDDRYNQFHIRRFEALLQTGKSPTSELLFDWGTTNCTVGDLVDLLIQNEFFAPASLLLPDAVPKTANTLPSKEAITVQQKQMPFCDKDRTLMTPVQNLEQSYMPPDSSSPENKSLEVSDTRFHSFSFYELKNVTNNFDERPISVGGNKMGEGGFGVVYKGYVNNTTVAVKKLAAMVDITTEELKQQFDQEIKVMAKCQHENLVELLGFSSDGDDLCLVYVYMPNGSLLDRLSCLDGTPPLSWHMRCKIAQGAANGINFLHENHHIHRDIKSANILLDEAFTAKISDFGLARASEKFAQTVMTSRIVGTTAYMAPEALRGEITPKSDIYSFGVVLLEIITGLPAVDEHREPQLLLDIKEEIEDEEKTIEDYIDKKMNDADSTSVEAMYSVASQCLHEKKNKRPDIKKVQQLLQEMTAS
In words: Western blot degradation of IRAK4. The experiment is classed as cell-based. The settings on record: hPBMC Cell; 24 hours. The method in brief: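 Immunoblot of drug-treated versus DMSO-treated cell lysates, with densitometric quantification. Values: DC50 (50% band loss, fitted) and loading-control-normalised % remaining or degradation.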
(A western blot detects proteins with antibodies after separation by electrophoresis.)

For experiment [3], the system named is Human myeloid monocytic leukemia cell line (MV-4-11). The experiment can be described thus: Inhibition of MV-4-11 cell proliferation (CellTiter luminescent viability). The experiment is classed as cell-based. Conditions: Homo sapiens, MV4-11, Table IJ2, Tau inhibitor-based, 96 hours. In short, it runs like this: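 IC50 is fitted from luminescent viability (CellTiter-Meiluncell) curves. Nine-point, 5-fold dilution series (top stock 2000 μM) are added at 0.5 μL per 100 μL medium to cells plated the day before, with growth at 37 °C and 5% CO2.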

T1 sequence (Q96SW2 whole entry): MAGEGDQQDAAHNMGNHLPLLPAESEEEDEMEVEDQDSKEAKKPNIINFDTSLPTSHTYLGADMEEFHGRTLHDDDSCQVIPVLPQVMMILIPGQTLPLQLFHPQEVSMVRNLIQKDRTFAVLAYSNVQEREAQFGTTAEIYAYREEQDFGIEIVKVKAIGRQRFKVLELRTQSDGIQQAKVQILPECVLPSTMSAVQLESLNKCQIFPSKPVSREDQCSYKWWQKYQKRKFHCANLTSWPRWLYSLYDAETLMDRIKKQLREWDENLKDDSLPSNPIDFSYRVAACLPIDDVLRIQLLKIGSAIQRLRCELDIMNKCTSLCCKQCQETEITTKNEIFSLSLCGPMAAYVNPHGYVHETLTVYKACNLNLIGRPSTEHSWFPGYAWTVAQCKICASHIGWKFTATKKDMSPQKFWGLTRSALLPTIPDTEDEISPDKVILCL

As to `N#Cc1ccc(O[C@H]2CC[C@H](NC(=O)c3ccc(N4CCC(CN5CCN(c6ccc7c(c6F)C(=O)N(N6CCC(=O)NC6=O)C7=O)CC5)CC4)nn3)CC2)cc1Cl` [GT-05232, N-((1r,4r)-4-(3-chloro-4-cyanophenoxy)cyclohexyl)-6-(4-((4-(2-(2,4-dioxotetrahydropyrimidin-1(2H)-yl)-4-fluoro-1,3-dioxoisoindolin-5-yl)piperazin-1-yl)methyl)piperidin-1-yl)pyridazine-3-carboxamide], in experiment [1] (Table IF1, AR inhibitor-based), the inhibition – broadly, the change of the read-out against control, counted positive when it falls – at 0.01 µM fell in the range of 10 to 15% and the inhibition at 0.5 µM fell in the range of 25 to 30%.

As to `CC1(C)[C@H](NC(=O)c2ccc(N3CCC(CN4CCN(C5CCN(c6ccc7c(c6)C(=O)N(N6CCC(=O)NC6=O)C7=O)CC5(F)F)CC4)CC3)nc2)C(C)(C)[C@H]1Oc1ccc(C#N)c(Cl)c1` (stereo partly drawn) [GT-05347, N-((1r,3r)-3-(3-chloro-4-cyanophenoxy)-2,2,4,4-tetramethylcyclobutyl)-6-(4-((4-(1-(2-(2,4-dioxotetrahydropyrimidin-1(2H)-yl)-1,3-dioxoisoindolin-5-yl)-3,3-difluoropiperidin-4-yl)piperazin-1-yl)methyl)piperidin-1-yl)nicotinamide], in experiment [1] (Table IF1, AR inhibitor-based), the inhibition at 0.01 µM is 5 to 10% and the inhibition at 0.5 µM fell in the range of 20 to 25%.

Regarding `O=C1CCN(N2C(=O)c3ccc(N4CC5CCC4CN5C[C@H]4CC[C@H](n5cc(NC(=O)c6cnn7ccc(N8C[C@H]9C[C@@H]8CO9)nc67)c(C(F)F)n5)CC4)cc3C2=O)C(=O)N1` [GT-05833, 5-((1R,4R)-2-oxa-5-azabicyclo[2.2.1]heptan-5-yl)-N-(3-(difluoromethyl)-1-((1r,4R)-4-((5-(2-(2,4-dioxotetrahydropyrimidin-1(2H)-yl)-1,3-dioxoisoindolin-5-yl)-2,5-diazabicyclo[2.2.2]octan-2-yl)methyl)cyclohexyl)-1H-pyrazol-4-yl)pyrazolo[1,5-a]pyrimidine-3-carboxamide], the inhibition at 0.5 µM in experiment [2] (0.5 μM, read-out: Inhibition Rate at 0.5 μM (%)) is 40 to 53%. Also, in experiment [2] (2 μM, read-out: Inhibition Rate at 2 μM (%)), the inhibition at 2 µM fell in the range of 60 to 80%. Also, at IRAK4, the “Degradation of substrate protein IRAK4 (substrate protein remaining %)” value is “A (0%≤substrate protein remaining %≤80%)”.

`O=C1CCN(N2C(=O)c3ccc(COc4ccc(Cl)cc4-c4nc5cc(C(F)(F)F)cc(Cl)c5[nH]4)cc3C2=O)C(=O)N1` [GT-06478, 5-((4-chloro-2-(7-chloro-5-(trifluoromethyl)-1H-benzo[d]imidazol-2-yl)phenoxy)methyl)-2-(2,4-dioxotetrahydropyrimidin-1(2H)-yl)isoindoline-1,3-dione]: in experiment [1] (Table IF1, AR inhibitor-based), the inhibition at 0.01 µM lay within 15 to 20% and the inhibition at 0.5 µM was 30 to 35%.

`Cn1c2ccncc2c2ccc(-c3cnc(N4CCN(CC5CCN(c6ccc7c(c6)C(=O)N(N6CCC(=O)NC6=O)C7=O)CC5)CC4)c(C(F)(F)F)c3)cc21` [GT-08553, 2-(2,4-dioxotetrahydropyrimidin-1(2H)-yl)-5-(4-((4-(5-(5-methyl-5H-pyrido[4,3-b]indol-7-yl)-3-(trifluoromethyl)pyridin-2-yl)piperazin-1-yl)methyl)piperidin-1-yl)isoindoline-1,3-dione]: in experiment [1] (Table IJ3, Tau inhibitor-based), the inhibition at 0.01 µM was in the range of 10 to 15% and the inhibition at 0.5 µM was in the range of 40 to 50%.

On to `Cn1c2ccncc2c2ccc(-c3ccc(N4CCN(CC5CCN(c6cccc7c6C(=O)N(N6CCC(=O)NC6=O)C7=O)CC5)CC4)nc3)cc21` [GT-08558, 2-(2,4-dioxotetrahydropyrimidin-1(2H)-yl)-4-(4-((4-(5-(5-methyl-5H-pyrido[4,3-b]indol-7-yl)pyridin-2-yl)piperazin-1-yl)methyl)piperidin-1-yl)isoindoline-1,3-dione], for which the inhibition at 0.01 µM in experiment [1] (Table IJ3, Tau inhibitor-based) is 5 to 10%; in experiment [3] (MV-4-11, 10 nM, read-out: Inhibition Rate at 10 nM (%)), -5 to 0%. For the same compound, the inhibition at 0.5 µM in experiment [1] (Table IJ3, Tau inhibitor-based) is 80 to 100%; in experiment [3] (MV-4-11, 500 nM, read-out: Inhibition Rate at 500 nM (%)) it was 50 to 60%.
